Experimental data taken from US6399643B1, “Spiroimidazolidine derivatives, their preparation, their use and pharmaceutical preparations formed therefrom” (Aventis Pharma Deutschland GmbH, priority 1999, dated 2002).
Where a name gives a salt, the structure may show the parent alone.

Molecular target: T1, interaction between VCAM-1 and VLA-4 (Homo sapiens, UniProt P05556+P13612)
T1 construct: supplied in their natural form as surface molecules on human U937 cells; host or cells: human U937 cells (VLA-4, endogenous); the partner hVCAM-1(1-3)-IgG was made in house in transfected COS cells (ATCC CRL1651) and used as culture supernatant
Assay: U937/VCAM-1 cell adhesion test (adhesion of U937 cells to hVCAM-1(1-3)-IgG)
Assay type: cell-based
Conditions: inhibition of adhesion of human U937 cells (ATCC CRL 1593) to hVCAM-1(1-3)-IgG
From the text: A) U937/VCAM-1 Cell Adhesion Test
The test method used for the activity of the compounds of the formula I on the interaction between VCAM-1 and VLA-4 is the assay described below, which is specific for this interaction. The cellular binding components, that is the VLA-4 integrins, are supplied in their natural form as surface molecules on human U937 cells (ATCC CRL 1593), which belong to the leukocytes group. The specific binding components used are genetically engineered recombinant soluble fusion proteins, consisting of the extracytoplasmic domain of human VCAM-1 and the constant region of a human immunoglobulin of the subclass IgG1.
Assay for the Measurement of the Adhesion of U937 Cells (ATCC CRL 1593) to hVCAM-1 (1-3)-IgG
1. Preparation of Human VCAM-1(1-3)-IgG and Human CD4-IgG
A genetic construct for the expression of the extracellular domain of human VCAM-1, combined with the genetic sequence of the heavy chain of human immunoglobulin IgG1 (hinge, CH2 and CH3 regions) (from Brian Seed, Massachusetts General Hospital, Boston, USA; cf. Damle and Aruffo, Proc. Natl. Acad. Sci. USA 1991, 88, 6403), was employed. The soluble fusion protein hVCAM-1(1-3)-IgG contained the three aminoterminal extracellular immunoglobulin-like domains of human VCAM-1 (Damle and Aruffo, Proc. Natl. Acad. Sci. USA 1991, 88, 6403). CD4-IgG (Zettlmeissl et al., DNA and Cell Biology 1990, 9, 347) served as a fusion protein for negative controls. The recombinant proteins were expressed as soluble proteins after DEAE/dextran-mediated DNA transfection in COS cells (ATCC CRL1651) according to standard procedures (Ausubel et al., Current protocols in molecular biology, John Wiley & Sons, Inc., 1994).
2. Assay for the Measurement of the Adhesion of U937 Cells to hVCAM-1(1-3)-IgG
2.1 96-well microtiter test plates (Nunc Maxisorb) were incubated at room temperature for 1 hour with 100 μl/well of a goat-anti-human IgG antibody solution (10 μg/ml in 50 mM tris, pH 9.5). After removal of the antibody solution, washing was carried out once with PBS.
2.2 150 μl/well of a blocking buffer (1% BSA in PBS) were incubated on the plates at room temperature for 0.5 hour. After removal of the blocking buffer, washing was carried out once with PBS.
2.3 100 μl per well of a cell culture supernatant of transfected COS cells were incubated on the plates at room temperature for 1.5 hours. The COS cells were transfected with a plasmid which codes for the three N-terminal immunoglobulin-like domains of VCAM-1, coupled to the Fc portion of human IgG1 (hVCAM-1 (1-3)-IgG). The content of hVCAM-1(1-3)-IgG was about 0.5-1 μg/ml. After removing the culture supernatant, washing was carried out once with PBS.
2.4 The plates were incubated at room temperature for 20 minutes with 100 μl/well of Fc receptor blocking buffer (1 mg/ml of γ-globulin, 100 mM NaCl, 100 μM MgCl2, 100 μM MnCl2, 100 μM CaCl2, 1 mg/ml of BSA in 50 mM HEPES, pH 7.5). After removal of the Fc receptor blocking buffer, washing was carried out once with PBS.
2.5 20 μl of binding buffer (100 μM NaCl, 100 μM MgCl2, 100 μM MnCl2, 100 μM CaCl2, 1 mg/ml of BSA in 50 mM HEPES, pH 7.5) were initially introduced, and the substances to be tested were added in 10 μl of binding buffer and incubated for 20 minutes. The controls used were antibodies against VCAM-1(BBT, No. BBA6) and against VLA-4(Immunotech, No. 0764).
2.6 U937 cells were incubated in Fc receptor blocking buffer for 20 minutes and then pipetted in at a concentration of 1×10^6/ml and in an amount of 100 μl per well ([…]).
2.7 The plates were slowly immersed at an angle of 45° in stop buffer (100 mM NaCl, 100 μM MgCl2, 100 μM MnCl2, 100 μM CaCl2 in 25 mM Tris, pH 7.5) and shaken off. The process was repeated.
2.8 50 μl/well of a dye solution ([…] of Hoechst Dye 33258, 4% formaldehyde, 0.5% Triton X-100 in PBS) were then incubated on the plates for 15 minutes. […]

T1 sequence (P13612 34-1032): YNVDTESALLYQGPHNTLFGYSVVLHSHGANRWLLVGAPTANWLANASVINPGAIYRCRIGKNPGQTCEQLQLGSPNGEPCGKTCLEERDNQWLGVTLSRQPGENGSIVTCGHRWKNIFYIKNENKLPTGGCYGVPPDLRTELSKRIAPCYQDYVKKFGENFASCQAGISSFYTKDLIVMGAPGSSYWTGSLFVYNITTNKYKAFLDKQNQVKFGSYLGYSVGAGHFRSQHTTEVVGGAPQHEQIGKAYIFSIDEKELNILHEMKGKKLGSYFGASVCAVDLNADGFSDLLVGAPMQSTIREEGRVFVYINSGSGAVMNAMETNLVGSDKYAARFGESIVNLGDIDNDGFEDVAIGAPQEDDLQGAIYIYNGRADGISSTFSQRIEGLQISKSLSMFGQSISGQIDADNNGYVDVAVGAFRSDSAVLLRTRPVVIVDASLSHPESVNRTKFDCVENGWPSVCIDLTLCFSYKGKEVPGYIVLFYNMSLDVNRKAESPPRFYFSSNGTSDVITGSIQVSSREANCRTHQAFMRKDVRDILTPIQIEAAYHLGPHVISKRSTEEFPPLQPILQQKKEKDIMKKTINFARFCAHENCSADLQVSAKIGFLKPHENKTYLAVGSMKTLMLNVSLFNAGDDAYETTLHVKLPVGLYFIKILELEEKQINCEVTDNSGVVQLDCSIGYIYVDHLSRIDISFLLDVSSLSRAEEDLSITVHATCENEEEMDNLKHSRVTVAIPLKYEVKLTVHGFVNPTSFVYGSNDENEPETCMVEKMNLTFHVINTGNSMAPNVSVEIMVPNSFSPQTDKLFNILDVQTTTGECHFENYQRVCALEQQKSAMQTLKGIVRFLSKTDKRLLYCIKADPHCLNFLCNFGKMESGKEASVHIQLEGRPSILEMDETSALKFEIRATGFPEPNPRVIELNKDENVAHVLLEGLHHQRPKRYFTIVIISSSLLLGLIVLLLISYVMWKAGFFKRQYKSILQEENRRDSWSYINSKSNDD
T1 sequence (P05556 21-798): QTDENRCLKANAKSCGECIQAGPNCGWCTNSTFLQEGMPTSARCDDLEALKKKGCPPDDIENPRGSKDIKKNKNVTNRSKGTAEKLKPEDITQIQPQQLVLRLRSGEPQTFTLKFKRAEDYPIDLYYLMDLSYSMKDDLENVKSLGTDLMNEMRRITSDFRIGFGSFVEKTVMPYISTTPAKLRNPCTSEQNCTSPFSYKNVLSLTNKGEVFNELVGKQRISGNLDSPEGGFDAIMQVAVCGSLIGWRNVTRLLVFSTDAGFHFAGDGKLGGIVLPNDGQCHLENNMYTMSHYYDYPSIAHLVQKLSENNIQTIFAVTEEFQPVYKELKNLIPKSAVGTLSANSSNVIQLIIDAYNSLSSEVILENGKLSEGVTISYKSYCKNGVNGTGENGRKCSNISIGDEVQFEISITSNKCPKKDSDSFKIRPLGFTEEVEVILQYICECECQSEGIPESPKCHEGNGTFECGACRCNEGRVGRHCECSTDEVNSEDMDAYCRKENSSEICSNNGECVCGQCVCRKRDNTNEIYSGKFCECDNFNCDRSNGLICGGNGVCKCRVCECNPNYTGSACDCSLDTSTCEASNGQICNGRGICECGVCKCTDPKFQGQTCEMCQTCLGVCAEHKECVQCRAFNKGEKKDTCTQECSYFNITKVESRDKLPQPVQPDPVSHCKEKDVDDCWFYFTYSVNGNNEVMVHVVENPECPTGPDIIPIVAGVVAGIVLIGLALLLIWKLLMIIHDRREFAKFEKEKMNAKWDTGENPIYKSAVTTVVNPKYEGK

IC50 | SMILES
3.2 nM | CC(C)C[C@@H](C(=O)N[C@@H](CC(=O)O)c1ccccc1)N1C(=O)N(Cc2ccc(NC(=O)Nc3ccccc3)cc2)C2(CCCCC2)C1=O [Example 1, (S)-3-((S)-2-(4,4-Pentamethylene-3-(4-(3-phenylureido)benzyl)-2,5-dioxoimidazolidin-1-yl)-2-(2-methylpropyl)acetylamino)-3-phenylpropionic acid]
4.5 nM | CC(C)C[C@@H](C(=O)N[C@@H](CC(=O)O)c1ccccc1)N1C(=O)N(Cc2ccc(NC(=O)Nc3ccccc3)cc2)C2(CCCCC2)C1=O [Example 2, (S)-3-((S)-2-(4,4-Pentamethylene-3-(4-(3-phenylureido)benzyl)-2,5-dioxoimidazolidin-1-yl)-2-(2-methylpropyl)acetylamino)-3-phenylpropionic acid tromethamine salt]
17 nM | CC(C)C[C@@H](C(=O)N[C@H](C)CC(=O)O)N1C(=O)N(Cc2ccc(NC(=O)Nc3ccccc3)cc2)C2(CCCCC2)C1=O [Example 3, (R)-3-((S)-2-(4,4-Pentamethylene-3-(4-(3-phenylureido)benzyl)-2,5-dioxoimidazolidin-1-yl)-2-(2-methylpropyl)acetylamino)-3-methylpropionic acid]
85.4 nM | CC(C)C[C@H](CC(=O)O)NC(=O)[C@H](CC(C)C)N1C(=O)N(Cc2ccc(NC(=O)Nc3ccccc3)cc2)C2(CCCCC2)C1=O [Example 4, (R)-3-((S)-2-(4,4-Pentamethylene-3-(4-(3-phenylureido)benzyl)-2,5-dioxoimidazolidin-1-yl)-2-(2-methylpropyl)acetylamino)-3-(2-methylpropyl)propionic acid]
3.2 nM | Cc1ccccc1NC(=O)Nc1ccc(CN2C(=O)N([C@@H](CC(C)C)C(=O)N[C@@H](CC(=O)O)c3ccccc3)C(=O)C23CCCCC3)cc1 [Example 8, (S)-3-((S)-2-(4,4-Pentamethylene-3-(4-(3-(2-methylphenyl)ureido)benzyl)-2,5-dioxoimidazolidin-1-yl)-2-(2-methylpropyl)acetylamino)-3-phenylpropionic acid]
2.2 nM | Cc1ccccc1NC(=O)Nc1ccc(CN2C(=O)N([C@@H](CC(C)C)C(=O)N[C@H](C)CC(=O)O)C(=O)C23CCCCC3)cc1 [Example 9, (R)-3-((S)-2-(4,4-Pentamethylene-3-(4-(3-(2-methylphenyl)ureido)benzyl)-2,5-dioxoimidazolidin-1-yl)-2-(2-methylpropyl)acetylamino)-3-methylpropionic acid]
4 nM | COc1ccc([C@H](CC(=O)O)NC(=O)[C@H](CC(C)C)N2C(=O)N(Cc3ccc(NC(=O)Nc4ccccc4)cc3)C3(CCCCC3)C2=O)cc1 [Example 16, (S)-3-((S)-2-(4,4-Pentamethylene-3-(4-(3-phenylureido)benzyl)-2,5-dioxoimidazolidin-1-yl)-2-(2-methylpropyl)acetylamino)-3-(4-methoxyphenyl)propionic acid]
1.9 nM | COc1ccc([C@H](CC(=O)O)NC(=O)[C@H](CC(C)C)N2C(=O)N(Cc3ccc(NC(=O)Nc4ccccc4)cc3)C3(CCCCC3)C2=O)cc1 [Example 17, (S)-3-((S)-2-(4,4-Pentamethylene-3-(4-(3-phenylureido)benzyl)-2,5-dioxoimidazolidin-1-yl)-2-(2-methylpropyl)acetylamino)-3-(4-methoxyphenyl)propionic acid tromethamine salt]
2.4 nM | COc1ccc([C@H](CC(=O)O)NC(=O)[C@H](CC(C)C)N2C(=O)N(Cc3ccc(NC(=O)Nc4ccccc4)cc3)C3(CCCCC3)C2=O)c(OC)c1 [Example 18, (S)-3-((S)-2-(4,4-Pentamethylene-3-(4-(3-phenylureido)benzyl)-2,5-dioxoimidazolidin-1-yl)-2-(2-methylpropyl)acetylamino)-3-(2,4-dimethoxyphenyl)propionic acid]
3 nM | COc1ccc([C@H](CC(=O)O)NC(=O)[C@H](CC(C)C)N2C(=O)N(Cc3ccc(NC(=O)Nc4ccccc4)cc3)C3(CCCCC3)C2=O)c(OC)c1 [Example 19, (S)-3-((S)-2-(4,4-Pentamethylene-3-(4-(3-phenylureido)benzyl)-2,5-dioxoimidazolidin-1-yl)-2-(2-methylpropyl)acetylamino)-3-(2,4-dimethoxyphenyl)propionic acid tromethamine salt]
1.6 nM | COc1ccc([C@H](CC(=O)O)NC(=O)[C@H](CC(C)C)N2C(=O)N(Cc3ccc(NC(=O)Nc4ccccc4)cc3)C3(CCCCC3)C2=O)cc1OC [Example 20, (S)-3-((S)-2-(4,4-Pentamethylene-3-(4-(3-phenylureido)benzyl)-2,5-dioxoimidazolidin-1-yl)-2-(2-methylpropyl)acetylamino)-3-(3,4-dimethoxyphenyl)propionic acid]
3 nM | COc1ccc([C@H](CC(=O)O)NC(=O)[C@H](CC(C)C)N2C(=O)N(Cc3ccc(NC(=O)Nc4ccccc4)cc3)C3(CCCCC3)C2=O)cc1OC [Example 21, (S)-3-((S)-2-(4,4-Pentamethylene-3-(4-(3-phenylureido)benzyl)-2,5-dioxoimidazolidin-1-yl)-2-(2-methylpropyl)acetylamino)-3-(3,4-dimethoxyphenyl)propionic acid tromethamine salt]
6.7 nM | COc1cccc([C@H](CC(=O)O)NC(=O)[C@H](CC(C)C)N2C(=O)N(Cc3ccc(NC(=O)Nc4ccccc4)cc3)C3(CCCCC3)C2=O)c1 [Example 22, (S)-3-((S)-2-(4,4-Pentamethylene-3-(4-(3-phenylureido)benzyl)-2,5-dioxoimidazolidin-1-yl)-2-(2-methylpropyl)acetylamino)-3-(3-methoxyphenyl)propionic acid]
5.5 nM | Cc1ccccc1NC(=O)Nc1ccc(CN2C(=O)N([C@@H](CC(C)C)C(=O)N[C@@H](CC(=O)O)c3ccccc3)C(=O)C23CCCCC3)cc1 [Example 23, (S)-3-((S)-2-(4,4-Pentamethylene-3-(4-(3-(2-methylphenyl)ureido)benzyl)-2,5-dioxoimidazolidin-1-yl)-2-(2-methylpropyl)acetylamino)-3-phenylpropionic acid tromethamine salt]
1.7 nM | Cc1ccccc1NC(=O)Nc1ccc(CN2C(=O)N([C@@H](CC(C)C)C(=O)N[C@H](C)CC(=O)O)C(=O)C23CCCCC3)cc1 [Example 24, (R)-3-((S)-2-(4,4-Pentamethylene-3-(4-(3-(2-methylphenyl)ureido)benzyl)-2,5-dioxoimidazolidin-1-yl)-2-(2-methylpropyl)acetylamino)-3-methylpropionic acid tromethamine salt]
1.1 nM | COc1cccc([C@H](CC(=O)O)NC(=O)[C@H](CC(C)C)N2C(=O)N(Cc3ccc(NC(=O)Nc4ccccc4C)cc3)C3(CCCCC3)C2=O)c1 [Example 25, (S)-3-((S)-2-(4,4-Pentamethylene-3-(4-(3-(2-methylphenyl)ureido)benzyl)-2,5-dioxoimidazolidin-1-yl)-2-(2-methylpropyl)acetylamino)-3-(3-methoxyphenyl)propionic acid]
